In US9745328B2, “Flap modulators” (JANSSEN PHARMACEUTICA NV, priority 2013, dated 2017):
Where a name gives a salt, the structure may show the parent alone.

molecular target: human FLAP (Homo sapiens (Human), UniProt P20292); assay: FLAP binding assay (HTRF format); conditions: human FLAP wild type, Table 6 (additional runs)
In short: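 Samples were run in duplicate on each of two assay plates, the results were averaged, and the signal was expressed as an HTRF ratio.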

human FLAP, sequence (P20292 whole entry): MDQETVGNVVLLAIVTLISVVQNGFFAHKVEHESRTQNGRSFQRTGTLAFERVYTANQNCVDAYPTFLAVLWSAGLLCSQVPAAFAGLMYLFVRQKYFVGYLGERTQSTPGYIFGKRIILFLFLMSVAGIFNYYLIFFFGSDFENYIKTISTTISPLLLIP

`Fc1cc(-c2cccnc2OCC2CC2)ccc1-c1cnc2[nH]ccc2n1` [Example 400, 2-{4-[2-(Cyclopropylmethoxy)pyridin-3-yl]-2-fluorophenyl}-5H-pyrrolo[2,3-b]pyrazine] and `CS(=O)(=O)c1cc(F)ccc1-c1ccc(-c2cnc3[nH]ccc3n2)c(F)c1` [Example 489, 2-[3,4′-Difluoro-2′-(methylsulfonyl)biphenyl-4-yl]-5H-pyrrolo[2,3-b]pyrazine] are within 1.5-fold of each other in Ki: 14.1 nM for the first, 19.6 nM for the second.

`Nc1cnc(-c2ccc(-c3cccnc3OC3CCCCC3)cc2F)cn1` [Example 403, 5-{4-[2-(Cyclohexyloxy)pyridin-3-yl]-2-fluorophenyl}pyrazin-2-amine] and `COc1ccccc1-c1ccc(-c2cnc(N)cn2)c(F)c1` [Example 473, 5-(3-Fluoro-2′-methoxybiphenyl-4-yl)pyrazin-2-amine] are within 1.5-fold of each other in Ki: 69.8 nM for the first, 73 nM for the second.

First: N#Cc1nc(-c2ccc(-c3ccccc3S(=O)(=O)NCCO)cc2F)cnc1N [Example 413, 4′-(5-Amino-6-cyanopyrazin-2-yl)-3′-fluoro-N-(2-hydroxyethyl)biphenyl-2-sulfonamide]
Second: CC(C)(C)NS(=O)(=O)c1ccccc1-c1ccc(-c2cnc(N)c(C#N)n2)c(F)c1 [Example 434, 4′-(5-Amino-6-cyanopyrazin-2-yl)-N-tert-butyl-3′-fluorobiphenyl-2-sulfonamide]
The Ki of the first is 17-fold higher: 18.6 nM for the first, 1.1 nM for the second. The second binds more tightly here.

Compared with `N#Cc1nc(-c2ccc(-c3ccccc3S(=O)(=O)N3CCNC(=O)C3)cc2F)cnc1N` [Example 414, 3-Amino-6-{3-fluoro-2′-[(3-oxopiperazin-1-yl)sulfonyl]biphenyl-4-yl}pyrazine-2-carbontrile], `Cc1nc(-c2ccc(-c3ccccc3S(N)(=O)=O)cc2F)cnc1N` [Example 446, 4′-(5-Amino-6-methylpyrazin-2-yl)-3′-fluorobiphenyl-2-sulfonamide] is 4.6-fold higher in Ki: 65.5 nM for the first, 304 nM for the second. The first binds more tightly here.

Compared with `CC(C)(C)NS(=O)(=O)c1ccccc1-c1ccc(-c2cnc3ncccc3c2)c(F)c1` [Example 419, N-tert-Butyl-3′-fluoro-4′-(1,8-naphthyridin-3-yl)biphenyl-2-sulfonamide], `CC(C)(C)NS(=O)(=O)c1ccccc1-c1ccc(-c2cnc3cc[nH]c3c2)c(F)c1` [Example 425, N-tert-Butyl-3′-fluoro-4′-(1H-pyrrolo[3,2-b]pyridin-6-yl)biphenyl-2-sulfonamide] is 600-fold lower in Ki: roughly 1370 nM for the first, 2.3 nM for the second. The second binds more tightly here.

Going from `CC(C)(C)NS(=O)(=O)c1ccccc1-c1ccc(-c2ccc3[nH]ccc3c2)c(F)c1` [Example 421, N-tert-Butyl-3′-fluoro-4′-(1H-indol-5-yl)biphenyl-2-sulfonamide] to `CC(C)(C)NS(=O)(=O)c1ccccc1-c1ccc(-c2cc(N)c3[nH]ccc3c2)c(F)c1` [Example 458, 4′-(7-Amino-1H-indol-5-yl)-N-tert-butyl-3′-fluorobiphenyl-2-sulfonamide], the Ki falls from 28.3 nM to 4.2 nM (6.7-fold). The second binds more tightly here.

First: CC(C)(C)NS(=O)(=O)c1ccccc1-c1ccc(-c2ccc(N)cn2)c(F)c1 [Example 427, 4′-(5-Aminepyridin-2-yl)-N-tert-butyl-3′-fluoro-biphenyl-2-sulfonamide]
Second: CC(C)(C)NS(=O)(=O)c1ccccc1-c1ccc(-c2cnc(N)c(Br)n2)c(F)c1 [Example 442, 4′-(5-Amino-6-bromopyrazin-2-yl)-N-tert-butyl-3′-fluorobiphenyl-2-sulfonamide]
The Ki of the first is 49-fold higher: 43.9 nM for the first, 0.9 nM for the second. The second binds more tightly here.

Compared with `CC(C)(C)NS(=O)(=O)c1ccccc1-c1ccc(-c2cnc(N)c(F)c2)c(F)c1` [Example 430, 4′-(6-Amino-5-fluoropyridin-3-yl)-N-tert-butyl-3′-fluorobiphenyl-2-sulfonamide], `CC(C)(C)NS(=O)(=O)c1ccccc1-c1ccc(-c2cnc(N)c(Cl)c2)c(F)c1` [Example 451, 4′-(6-Amino-5-chloropyridin-3-yl)-N-tert-butyl-3′-fluorobiphenyl-2-sulfonamide trifluoroacetic acid salt] is 2.1-fold lower in Ki: 5.1 nM for the first, 2.4 nM for the second. The second binds more tightly here.

`CC(C)(C)NS(=O)(=O)c1ccccc1-c1ccc(-c2cnc3c(c2)CCN3)c(F)c1` [Example 431, N-tert-Butyl-4′-(2,3-dihydro-1H-pyrrolo[2,3-b]pyridin-5-yl)-3′-fluorobiphenyl-2-sulfonamide] and `CC(C)(C)NS(=O)(=O)c1ccccc1-c1ccc(-c2cnc3[nH]cc(CO)c3c2)c(F)c1` [Example 455, N-tert-Butyl-3′-fluoro-4′-[3-(hydroxymethyl)-1H-pyrrolo[2,3-b]pyridin-5-yl]biphenyl-2-sulfonamide] are within 1.5-fold of each other in Ki: 0.8 nM for the first, 0.7 nM for the second.

Going from `COc1nc(-c2ccc(-c3ccccc3S(=O)(=O)NC(C)(C)C)cc2F)cnc1N` [Example 433, 4′-(5-Amino-6-methoxypyrazin-2-yl)-N-tert-butyl-3′-fluorobiphenyl-2-sulfonamide] to `Cc1nc(-c2ccc(-c3ccccc3S(=O)(=O)NC(C)(C)C)cc2F)cnc1N` [Example 445, 4′-(5-Amino-6-methylpyrazin-2-yl)-N-tert-butyl-3′-fluorobiphenyl-2-sulfonamide], the Ki falls from 1.1 nM to 0.5 nM (2.2-fold). The second binds more tightly here.

Going from `CC(C)(C)NS(=O)(=O)c1ccccc1-c1ccc(-c2nnc(N)s2)c(F)c1` [Example 438, 4′-(5-amino-1,3,4-thiadiazol-2-yl)-N-(tert-butyl)-3′-fluoro-[1,1′-biphenyl]-2-sulfonamide] to `CC(C)(C)NS(=O)(=O)c1ccccc1-c1ccc(-c2cnc(N)nc2)c(F)c1F` [Example 466, 4′-(2-Aminopyrimidin-5-yl)-N-tert-butyl-2′,3′-difluorobipenyl-2-sulfonamide trifluoroacetic acid salt], the Ki rises from 0.7 nM to roughly 254 nM (360-fold). The first binds more tightly here.

`Nc1cc(-c2ccc(-c3ccccc3S(=O)(=O)NC3(CO)CCCC3)cc2F)cc2cc[nH]c12` [Example 456, 4′-(7-Amino-1H-indol-5-yl)-3′-fluoro-N-[1-(hydroxymethyl)cyclopentyl]biphenyl-2-sulfonamide] and `CNS(=O)(=O)c1ccccc1-c1ccc(-c2cnc3[nH]cc(CO)c3c2)c(F)c1` [Example 457, 3′-Fluoro-4′-[3-(hydroxymethyl)-1H-pyrrolo[2,3-b]pyridin-5-yl]-N-methylbiphenyl-2-sulfonamide] are within 1.5-fold of each other in Ki: 2.6 nM for the first, 2.7 nM for the second.

Compared with `CC(C)(C)NS(=O)(=O)c1ccccc1-c1ccc(-c2cnc(N)cn2)c(F)c1F` [Example 462, 4′-(5-Aminopyrazin-2-yl)-N-tert-butyl-2′,3′-difluorobipnenyl-2-sulfonamide], `Nc1cnc(-c2ccc(-c3ccccc3S(N)(=O)=O)c(F)c2F)cn1` [Example 464, 4′-(5-Aminopyrazin-2-yl)-2′,3′-difluorobiphenyl-2-sulfonamide] is 53-fold higher in Ki: 2.3 nM for the first, 121 nM for the second.

`Nc1cnc(-c2ccc(-c3ccc(OC(F)(F)F)cc3F)cc2F)cn1` [Example 467, 5-[2′,3-Difluoro-4′-(trifluoromethoxy)biphenyl-4-yl]pyrazin-2-amine] and `Nc1cnc(-c2ccc(-c3ccc(C(F)(F)F)cc3F)cc2F)cn1` [Example 471, 5-[2′,3-Difiuoro-4′-(trifluoromethyl)biphenyl-4-yl]pyrazin-2-amine] are within 1.5-fold of each other in Ki: 53.5 nM for the first, 55.8 nM for the second.

Compared with `Nc1cnc(-c2ccc(-c3ccccc3F)cc2F)cn1` [Example 468, 5-(2′,3-Difluorobiphenyl-4-yl)pyrazin-2-amine], `Nc1cnc(-c2ccc(-c3ccccc3Cl)cc2F)cn1` [Example 469, 5-(2′-Chloro-3-fluorobiphenyl-4-yl)pyrazin-2-amine] is 1.9-fold lower in Ki: 332 nM for the first, 179 nM for the second. The second binds more tightly here.

`Cc1ccccc1-c1ccc(-c2cnc(N)cn2)c(F)c1` [Example 470, 5-(3-Fluoro-2′-methylbiphenyl-4-yl)pyrazin-2-amine] and `CC(=O)c1ccccc1-c1ccc(-c2cnc(N)cn2)c(F)c1` [Example 483, 1-[4′-(5-Aminopyrazin-2-yl)-3′-fluorobiphenyl-2-yl]ethanone] are within 1.5-fold of each other in Ki: 397 nM for the first, roughly 354 nM for the second.

Compared with `Nc1cnc(-c2ccc(-c3ccccc3C(F)(F)F)cc2F)cn1` [Example 472, 5-[3-Fluoro-2′-(trifluoromethyl)biphenyl-4-yl]pyrazin-2-amine], `Nc1cnc(-c2ccc(-c3ccccc3OCC(=O)O)cc2F)cn1` [Example 481, {[4′-(5-Aminopyrazin-2-yl)-3′-fluorobiphenyl-2-yl]oxy}acetic acid] is 14-fold higher in Ki: 136 nM for the first, 1910 nM for the second. The first binds more tightly here.

`Nc1cnc(-c2ccc(-c3ccccc3NS(=O)(=O)c3ccccc3)cc2F)cn1` [Example 479, N-[4′-(5-Aminopyrazin-2-yl)-3′-fluorobiphenyl-2-yl]benzenesulfonamide] and `Nc1cnc(-c2ccc(-c3ccccc3Oc3ncccn3)cc2F)cn1` [Example 526, 5-[3-Fluoro-2′-(pyrimidin-2-yloxy)biphenyl-4-yl]pyrazin-2-amine] are within 1.5-fold of each other in Ki: 7.7 nM for the first, 8.3 nM for the second.

Compared with `CC(C)(C)NC(=O)c1ccccc1-c1ccc(-c2cnc(N)cn2)c(F)c1` [Example 501, 4′-(5-Aminopyrazin-2-yl)-N-tert-butyl-3′-fluorobiphenyl-2-carboxamide], `Nc1cnc(-c2ccc(-c3ccccc3Oc3nccc(N)n3)cc2F)cn1` [Example 528, 2-{[4′-(5-Aminopyrazin-2-yl)-3′-fluorobiphenyl-2-yl]oxy}pyrimidin-4-amine] is 65-fold lower in Ki: 359 nM for the first, 5.5 nM for the second. The second binds more tightly here.

`Nc1cnc(-c2ccc(-c3ccc(C(F)(F)F)cc3C(=O)N3CCOCC3)cc2F)cn1` [Example 521, 5-[3-Fluoro-2′-(morpholin-4-ylcarbonyl)-4′-(trifluoromethyl)biphenyl-4-yl]pyrazin-2-amine] and `Nc1cnc(-c2ccc(-c3ccccc3Oc3ccnc(N)n3)cc2F)cn1` [Example 533, 4-{[4′-(5-Aminopyrazin-2-yl)-3′-fluorobiphenyl-2-yl]oxy}pyrimidin-2-amine] are within 1.5-fold of each other in Ki: 5.4 nM for the first, 4.5 nM for the second.

Compared with `Nc1nccc(Oc2ccccc2-c2ccc(-c3cnc4[nH]ccc4c3)c(F)c2)n1` [Example 523, 4-{[3′-Fluoro-4′-(1H-pyrrolo[2,3-b]pyridin-5-yl)biphenyl-2-yl]oxy}pyrimidin-2-amine], `Nc1ccnc(Oc2ccccc2-c2ccc(-c3cnc4[nH]ccc4c3)c(F)c2)n1` [Example 524, 2-{[3′-Fluoro-4′-(1H-pyrrolo[2,3-b]pyridin-5-yl)biphenyl-2-yl]oxy}pyrimidin-4-amine] is 1.9-fold lower in Ki: 1.3 nM for the first, 0.7 nM for the second. The second binds more tightly here.

In the case of `N#Cc1cccnc1COc1ccccc1-c1ccc(-c2cnc(N)cn2)c(F)c1` [Example 531, 2-({[4′-(5-Aminopyrazin-2-yl)-3′-fluorobiphenyl-2-yl]oxy}methyl)pyridine-3-carbonitrile], the Ki is reported as 8.5 nM.
